Laboratory results as given in publication PMC3320663 (Chemmedchem, 2011).
pIC50: −log10 of the molar value. Where two headings read alike, the source gives them in different places.

Target: T1, TbTryS (Trypanosoma brucei, UniProt Q586P2)
T1 sequence (Q586P2 1-627): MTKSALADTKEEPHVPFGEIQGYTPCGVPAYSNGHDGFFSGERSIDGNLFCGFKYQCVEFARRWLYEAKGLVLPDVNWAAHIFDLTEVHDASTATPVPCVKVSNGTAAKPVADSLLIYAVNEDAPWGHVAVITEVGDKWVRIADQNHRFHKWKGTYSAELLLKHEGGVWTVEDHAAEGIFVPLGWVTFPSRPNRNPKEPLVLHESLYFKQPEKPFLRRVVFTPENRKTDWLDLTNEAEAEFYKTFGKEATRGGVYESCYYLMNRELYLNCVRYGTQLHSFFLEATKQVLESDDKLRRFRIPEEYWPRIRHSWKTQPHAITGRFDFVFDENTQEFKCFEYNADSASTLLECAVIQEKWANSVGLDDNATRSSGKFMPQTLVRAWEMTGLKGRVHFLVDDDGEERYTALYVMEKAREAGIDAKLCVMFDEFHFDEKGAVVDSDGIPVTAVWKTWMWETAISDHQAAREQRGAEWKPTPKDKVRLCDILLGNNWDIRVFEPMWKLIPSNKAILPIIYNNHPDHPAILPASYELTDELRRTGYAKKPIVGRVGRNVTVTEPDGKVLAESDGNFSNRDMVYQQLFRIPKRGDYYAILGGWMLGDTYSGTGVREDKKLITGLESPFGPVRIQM
Assay: Trypanothione synthetase
Format: biochemical
Conditions: for LE (ligand efficiency): calculated as −0.6×ln(IC50)/(heavy atom count)

LE (ligand efficiency)	pIC50 (TbTryS IC50)	Compound	further results
0.32	5.35	Fc1cccc(-c2nn(Cc3cccnc3)c3ccccc23)c1 [Compound 76, 3-(3-Fluorophenyl)-1-(pyridin-3-ylmethyl)-1H-indazole]	
	5.96	CC(C)(C)S(=O)(=O)Cc1nc(-c2ccccc2F)cs1 [Compound 5, 2-((tert-Butylsulfonyl)methyl)-4-(2-fluorophenyl)thiazole]	
0.32	6.46	O=C(Cn1nc(-c2cccc(F)c2)c2ccccc21)NCCCn1ccnc1 [Compound 81, N-(3-(1H-Imidazol-1-yl)propyl)-2-(3-(3-fluorophenyl)-1H-indazol-1-yl)acetamide]	decrease in potency relative to 84: eight
	< 4.00	Cn1ccc2c(-c3nn(CC(=O)C(C)(C)C)c4ccccc34)cccc21 [Compound 63, 3,3-Dimethyl-1-(3-(1-methyl-1H-indol-4-yl)-1H-indazol-1-yl)butan-2-one]	
	6.82	CC(C)(C)C(=O)Cn1nc(-c2ccccc2)c2ccccc21 [Compound 60, 1-(3-Phenyl-1H-indazol-1-yl)-3,3-dimethylbutan-2-one]	
	4.92	COc1cccc(-c2csc(CS(=O)(=O)C(C)(C)C)n2)c1 [Compound 6, 2-((tert-Butylsulfonyl)methyl)-4-(3-methoxyphenyl)thiazole]	loss in potency relative to unsubstituted compound 3: 10 fold
	< 4.00	Fc1cccc(-c2nn(Cc3cc(-c4ccccc4)on3)c3ccccc23)c1 [Compound 78, 3-((3-(3-Fluorophenyl)-1H-indazol-1-yl)methyl)-5-phenylisoxazole]	
	< 4.00	CC(C)(C)C(=O)Cn1nc(-c2ccc3ccccc3c2)c2ccccc21 [Compound 64, 3,3-Dimethyl-1-(3-(naphthalen-2-yl)-1H-indazol-1-yl)butan-2-one]	
0.33	5.54	Fc1cccc(-c2nn(Cc3ccccn3)c3ccccc23)c1 [Compound 75, 3-(3-Fluorophenyl)-1-(pyridin-2-ylmethyl)-1H-indazole]	
0.40	6.92	CC(C)(C)S(=O)(=O)Cn1nc(-c2cccc(F)c2)c2ccccc21 [Compound 74, 1-(tert-Butylsulfonylmethyl)-3-(3-fluorophenyl)-1H-indazole]	
0.39	6.70	CCN(CC)C(=O)Cn1nc(-c2cccc(F)c2)c2ccccc21 [Compound 87, N,N-Diethyl-2-(3-(3-fluorophenyl)-1H-indazol-1-yl)acetamide]	
	5.96	CC(C)(C)S(=O)(=O)Cc1nc(-c2cccc(C(F)(F)F)c2)cs1 [Compound 7, 2-(tert-Butylsulfonylmethyl)-4-(3-trifluoromethylphenyl)thiazole]	
0.29	6.07	CN1CCN(CCNC(=O)Cn2nc(-c3cccc(F)c3)c3ccccc32)CC1 [Compound 90, 2-(3-(3-Fluorophenyl)-1H-indazol-1-yl)-N-(2-(4-methylpiperazin-1-yl)ethyl)acetamide]	
	5.49	Cc1ccccc1-c1csc(CS(=O)(=O)C(C)(C)C)n1 [Compound 4, 2-((tert-Butylsulfonyl)methyl)-4-(2-methylphenyl)thiazole]	
0.42	6.40	CC(C)(C)C(=O)Cn1nc(-c2ccsc2)c2ccccc21 [Compound 68, 3,3-Dimethyl-1-(3-(thiophen-3-yl)-1H-indazol-1-yl)butan-2-one]	
	6.40	CC(C)(C)S(=O)(=O)Cc1nc(-c2cccc(F)c2)cs1 [Compound 9, 2-(tert-Butylsulfonylmethyl)-4-(3-fluorophenyl)thiazole]	
0.35		N-Methyl-(3-(dimethylamino)propyl)-2-(3-(3-fluorophenyl)-1H-indazol-1-yl)acetamide [Compound 85]	pIC50 (read-out: TbTryS IC50): 6.77
	5.82	CC(C)(C)C(=O)Cn1nnc(-c2cccc(F)c2)n1 [Compound 17, 1-(5-(3-Fluorophenyl)-2H-tetrazol-2-yl)-3,3-dimethylbutan-2-one]	
	5.19	CC(=O)Cn1nnc(-c2cc(Cl)cc(Cl)c2)n1 [Compound 21, 1-(5-(3,5-Dichlorophenyl)-2H-tetrazol-2-yl)propan-2-one]	
0.28	6.08	CN1CCN(CCCNC(=O)Cn2nc(-c3cccc(F)c3)c3ccccc32)CC1 [Compound 80, 2-(3-(3-Fluorophenyl)-1H-indazol-1-yl)-N-(3-(4-methylpiperazin-1-yl)propyl)acetamide]	

Second part, the compound before the results:

Compound	LE (ligand efficiency)	pIC50 (TbTryS IC50)	further results
3-(tert-Butylsulfonylmethyl)-1-(3-fluorophenyl)-1H-indazole [Compound 73]	0.41		pIC50 (read-out: TbTryS IC50): 7.10
Cc1nc(Cn2nc(-c3cccc(F)c3)c3ccccc32)c(C)o1 [Compound 77, 4-((3-(3-Fluorophenyl)-1H-indazol-1-yl)methyl)-2,5-dimethyloxazole]	0.26	4.55	
CC(C)(C)OC(=O)N1CCN(CCNC(=O)Cn2nc(-c3cccc(F)c3)c3ccccc32)CC1 [Compound 82, tert-Butyl-4-(2-(2-(3-(3-fluorophenyl)-1H-indazol-1-yl)acetamido)ethyl)piperazine-1-carboxylate]	0.22	5.54	
CC(C)(C)C(=O)Cn1nc(-c2cccc(Cl)c2)c2ccccc21 [Compound 70, 1-(3-(3-Chlorophenyl)-1H-indazol-1-yl)-3,3-dimethylbutan-2-one]	0.39	6.46	pIC50 (TbTryS IC50, values in running text): 6.45
CC(C)(C)C(=O)Cn1nnc(-c2cc(Cl)cc(Cl)c2)n1 [Compound 20, 1-(5-(3,5-Dichlorophenyl)-2H-tetrazol-2-yl)-3,3-dimethylbutan-2-one]	0.45	6.52	gain in potency relative to unsubstituted scaffold 14: 25 fold
CCC(=O)Cn1nnc(-c2cc(Cl)cc(Cl)c2)n1 [Compound 22, 1-(5-(3,5-Dichlorophenyl)-2H-tetrazol-2-yl)butan-2-one]		5.57	
CN(C)C(=O)Cn1nnc(-c2cc(Cl)cc(Cl)c2)n1 [Compound 23, 2-(5-(3,5-Dichlorophenyl)-2H-tetrazol-2-yl)-N,N-dimethylacetamide]		6.22	
CC(C)(C)S(=O)(=O)Cc1nc(-c2ccccc2)cs1 [Compound 3, 2-((tert-Butylsulfonyl)methyl)-4-(phenyl)thiazole]		5.92	
CC(C)Cn1cc(-c2nn(CC(=O)C(C)(C)C)c3ccccc23)cn1 [Compound 69, 1-(3-(1-Isobutyl-1H-pyrazol-4-yl)-1H-indazol-1-yl)-3,3-dimethylbutan-2-one]		< 4.00	
O=C(Cn1nc(-c2cccc(F)c2)c2ccccc21)NCc1ccc(Cl)cc1 [Compound 86, N-(4-Chlorobenzyl)-2-(3-(3-fluorophenyl)-1H-indazol-1-yl)acetamide]		< 4.00	
CCN(CC)C(=O)Cn1nc(C(F)(F)F)c2c1CCCC2 [Compound 35, N,N-Diethyl-2-(3-(trifluoromethyl)-4,5,6,7-tetrahydro-1H-indazol-1-yl)acetamide]		4.82	TbTryS activity in words: retained some inhibitory activity
CC(C)(C)C(=O)Cn1nc(-c2ccc(Cl)cc2)c2ccccc21 [Compound 61, 1-(3-(4-Chlorophenyl)-1H-indazol-1-yl)-3,3-dimethylbutan-2-one]		< 4.00	
CC(C)(C)S(=O)(=O)Cc1nn(-c2ccccc2)c2ccccc12 [Compound 72, 3-(tert-Butylsulfonylmethyl)-1-phenyl-1H-indazole]	0.40	6.66	
O=C(Cn1nnc(-c2cc(F)cc(F)c2)n1)c1ccccc1 [Compound 24, 2-(5-(3,5-Difluorophenyl)-2H-tetrazol-2-yl)-1-phenylethanone]		4.35	
Cc1cc(Cn2nc(-c3cccc(F)c3)c3ccccc32)no1 [Compound 79, 3-((3-(3-Fluorophenyl)-1H-indazol-1-yl)methyl)-5-methylisoxazole]		< 4.00	
CN(C)C(=O)Cn1nc(-c2cccc(F)c2)c2ccccc21 [Compound 88, 2-(3-(3-Fluorophenyl)-1H-indazol-1-yl)-N,N-dimethylacetamide]	0.44	6.96	
CN(C)CCNC(=O)Cn1nc(-c2cccc(F)c2)c2ccccc21 [Compound 83, N-(2-(Dimethylamino)ethyl)-2-(3-(3-fluorophenyl)-1H-indazol-1-yl)acetamide]	0.38	6.84	
CC(C)(C)C(=O)Cn1nc(-c2ccco2)c2ccccc21 [Compound 66, 1-(3-(Furan-2-yl)-1H-indazol-1-yl)-3,3-dimethylbutan-2-one]		5.72	loss in activity (heterocycle at indazole position 3) (indazole series, initial compound 60): 10 fold
CC(C)(C)C(=O)Cn1nc(-c2cccc3[nH]ccc23)c2ccccc21 [Compound 62, 1-(3-(1H-Indol-4-yl)-1H-indazol-1-yl)-3,3-dimethylbutan-2-one]		5.43	
CC(C)(C)C(=O)Cn1nnc(-c2cc(F)cc(F)c2)n1 [Compound 19, 1-(5-(3,5-Difluorophenyl)-2H-tetrazol-2-yl)-3,3-dimethylbutan-2-one]		5.72	
